According to patent publication US8134015B2, “Compound inhibiting in vivo phosphorous transport and medicine containing the same” (Kyowa Hakko Kirin Co., Ltd., priority 2003, dated 2012):

Target: T1, rat NaPi-2b (Rattus norvegicus, UniProt Q9JJ09)
T1 construct: expressed in transfected cells; host or cells: Xenopus oocytes injected with cRNA
T1 sequence (Q9JJ09 1-695): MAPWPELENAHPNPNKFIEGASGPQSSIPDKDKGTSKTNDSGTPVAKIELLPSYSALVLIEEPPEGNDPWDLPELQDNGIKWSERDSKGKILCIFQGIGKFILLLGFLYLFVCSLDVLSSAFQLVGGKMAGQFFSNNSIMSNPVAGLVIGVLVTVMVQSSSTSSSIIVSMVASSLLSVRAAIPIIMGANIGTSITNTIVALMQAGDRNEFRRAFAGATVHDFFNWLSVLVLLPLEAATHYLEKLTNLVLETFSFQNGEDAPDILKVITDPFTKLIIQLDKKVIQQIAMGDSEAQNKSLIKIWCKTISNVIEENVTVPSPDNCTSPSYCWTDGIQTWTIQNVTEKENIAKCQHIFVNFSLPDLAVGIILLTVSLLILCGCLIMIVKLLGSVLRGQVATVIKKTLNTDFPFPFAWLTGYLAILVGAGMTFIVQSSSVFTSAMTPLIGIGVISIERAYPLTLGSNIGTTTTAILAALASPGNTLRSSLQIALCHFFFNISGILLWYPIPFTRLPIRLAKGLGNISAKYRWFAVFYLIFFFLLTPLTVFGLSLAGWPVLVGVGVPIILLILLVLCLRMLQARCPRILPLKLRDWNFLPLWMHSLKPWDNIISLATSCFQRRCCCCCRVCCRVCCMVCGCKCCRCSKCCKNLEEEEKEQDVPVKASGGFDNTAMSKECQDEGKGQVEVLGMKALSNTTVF
Assay: Sodium-dependent phosphate uptake of Xenopus oocytes which expressed NaPi-2b (32P)
Assay type: cell-based
Settings: for IC50: Xenopus oocytes expressing rat NaPi-2b, 32P radioactive phosphorus, read-out: IC50 (phosphate uptake inhibitory activity); for inhibition at 300 µM: phosphate uptake, oocytes expressing rat NaPi-2b, determined from inhibition curve
Summary of the method: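 Rat small-intestine NaPi-2b cRNA injected into Xenopus oocytes, expressed for 2 days. Sodium-dependent phosphate uptake measured with 32P; % inhibition at 300 and 100 μM taken from the same inhibition curve.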

| IC50 | inhibition at 300 µM | SMILES |
| --- | --- | --- |
| 6.43 µM | – | COc1ccc(/C=N/NC(=O)c2cc(Cl)ccc2NC(=O)c2ccc(OC)c(OC)c2)cc1OC [Compound 126, N-[4-Chloro-2-(3,4-dimethoxy-benzylidene-hydrazinocarbonyl)-phenyl]-3,4-dimethoxy-benzamide] |
| 14.8 µM | – | COc1ccc(/C=N/NC(=O)c2cc(N3CCCCC3)ccc2NC(=O)c2cccc(CSCC(=O)O)c2)cc1 [Compound 892, {3-[2-(4-Methoxy-benzylidene-hydrazinocarbonyl)-4-piperidin-1-yl-phenylcarbamoyl]-benzylsulfanyl}-acetic acid] |
| 5.97 µM | – | COc1ccc(C(=O)Nc2ccc(Br)cc2C(=O)N/N=C/c2cccc(O)c2)cc1OC [Compound 63, N-[4-Bromo-2-(3-hydroxy-benzylidene-hydrazinocarbonyl)-phenyl]-3,4-dimethoxy-benzamide] |
| 2.34 µM | – | CCN(CC)CCN(C)Cc1cccc(C(=O)Nc2sc3c(c2C(=O)N/N=C/c2cccc(F)c2)CCCC3)c1 [Compound 612, 3-{[(2-Diethylamino-ethyl)-methyl-amino]-methyl}-N-[3-(3-fluoro-benzylidene-hydrazinocarbonyl)-4,5,6,7-tetrahydro-benzo-[b]thiophen-2-yl]-benzamide] |
| 23.1 µM | – | CCOc1ccc(C(=O)Nc2ccc(Br)cc2C(=O)N/N=C/c2cccc(F)c2)cc1 [Compound 501, N-[4-Bromo-2-(3-fluoro-benzylidene-hydrazinocarbonyl)-phenyl]-4-ethoxy-benzamide] |
| 1.77 µM | – | Cc1ccc(/C=N/n2c(-c3cccc(CSc4nc[nH]n4)c3)nc3sc4c(c3c2=O)CCCC4)cc1C [Compound 646, 3-[(3,4-Dimethyl-benzylidene-)-amino]-2-[3-(1H-[1,2,4]triazol-3-ylsulfanylmethyl)-phenyl]-5,6,7,8-tetrahydro-3H-benzo[4,5]thieno[2,3-d]pyrimidin-4-one] |
| 5.78 µM | – | COc1ccc(NC(=O)c2ccc(OC)c(OC)c2)c(C(=O)N/N=C/c2cccc(F)c2)c1 [Compound 141, N-[2-(3-Fluoro-benzylidene-hydrazinocarbonyl)-4-methoxy-phenyl]-3,4-dimethoxy-benzamide] |
| 1.16 µM | – | CCN(CC)CCN(C)Cc1ccc(C(=O)Nc2ccc(Br)cc2C(=O)N/N=C/c2cccc(OC)c2)cc1 [Compound 291, N-[4-Bromo-2-(3-methoxy-benzylidene-hydrazinocarbonyl)-phenyl]-4-{[(2-diethylamino-ethyl)-methyl-amino]-methyl}-benzamide] |
| 7.86 µM | – | COc1ccc(C(=O)Nc2ccc(Br)cc2C(=O)N/N=C/c2ccccc2C)cc1OC [Compound 30, N-[4-Bromo-2-(2-methyl-benzylidene-hydrazinocarbonyl)-phenyl]-3,4-dimethoxy-benzamide] |
| 4.12 µM | – | Cc1csc(NC(=O)c2cccc(CN3CCC(N4CCCCC4)CC3)c2)c1C(=O)N/N=C/c1cccc(F)c1 [Compound 572, 3-[1,4′]Bipiperidinyl-1′-ylmethyl-N-[3-(3-fluoro-benzylidene-hydrazinocarbonyl)-4-methyl-thiophen-2-yl]-benzamide] |
| < 3 µM | – | Cc1ccc(/C=N/NC(=O)c2cc(Cl)ccc2NC(=O)c2cccc(C[S+]([O-])Cc3ccco3)c2)cc1C (stereo not shown) [Compound 687, N-[4-Chloro-2-(3,4-dimethyl-benzylidene-hydrazinocarbonyl)-phenyl]-3-(furan-2-ylmethanesulfinylmethyl)-benzamide] |
| 3.1 µM | – | CCN(CC)CCN(CCN(CC)CC)Cc1cccc(C(=O)Nc2sc3c(c2C(=O)N/N=C/c2ccc(OC)cc2)CCCC3)c1 [Compound 850, 3-{[Bis-(2-diethylamino-ethyl)-amino]-methyl}-N-[3-(4-methoxy-benzylidene-hydrazinocarbonyl)-4,5,6,7-tetrahydro-benzo[b]-thiophen-2-yl]-benzamide] |
| – | 47.9% | O=C(Nc1ccccc1C(=O)N/N=C/C=C/c1ccccc1)c1ccccc1 [Compound 235, N-[2-(3-Phenyl-allylidene-hydrazinocarbonyl)-phenyl]-benzamide] |
| – | 37.9% | C/C(=N\NC(=O)c1cc(Cl)ccc1NC(=O)c1cccnc1)c1cccc(C)c1 [Compound 250, N-[4-Chloro-2-(1-m-toluyl-ethylidene-hydrazinocarbonyl)-phenyl]-nicotinamide] |
| 18.7 µM | – | O=C(Nc1sccc1C(=O)N/N=C/c1ccc(F)cc1)c1cccc(CSCCCO)c1 [Compound 660, N-[3-(4-Fluoro-benzylidene-hydrazinocarbonyl)-thiophen-2-yl]-3-(3-hydroxy-propylsulfanylmethyl)-benzamide] |
| 0.58 µM | – | COc1ccc(C(=O)Nc2ccc(Br)cc2C(=O)N/N=C/c2cccc(C)c2)cc1OC [Compound 31, N-[4-Bromo-2-(3-methyl-benzylidene-hydrazinocarbonyl)-phenyl]-3,4-dimethoxy-benzamide] |
| – | 84.1% | COc1ccc(/C=N/NC(=O)c2cc(Br)ccc2NC(=O)c2ccc(CNCCN3CCOCC3)cc2)cc1 [Compound 715, N-[4-Bromo-2-(4-methoxy-benzylidene-hydrazinocarbonyl)-phenyl]-4-[(2-morpholin-4-yl-ethylamino)-methyl]-benzamide] |
| – | 56.5% | COc1ccc(/C=N/NC(=O)c2cc(Br)ccc2NC(=O)c2ccc(CNC(CN3CCOCC3)c3ccccc3)cc2)cc1 (stereo not shown) [Compound 748, N-[4-Bromo-2-(4-methoxy-benzylidene-hydrazinocarbonyl)-phenyl]-4-[(2-morpholin-4-yl-1-phenyl-ethylamino)-methyl]-benzamide] |
| – | 42.1% | CCN(CC)Cc1cccc(C(=O)Nc2ccsc2C(=O)N/N=C/c2cccc(F)c2)c1 [Compound 995, 3-Diethylaminomethyl-N-[2-(3-fluoro-benzylidene-hydrazinocarbonyl)-thiophen-3-yl]-benzamide] |
| 10.4 µM | – | COc1ccc(C(=O)Nc2cc(Cl)ccc2C(=O)N/N=C/c2ccc(F)cc2)cc1OC [Compound 72, N-[5-Chloro-2-(4-fluoro-benzylidene-hydrazinocarbonyl)-phenyl]-3,4-dimethoxy-benzamide] |
| 0.88 µM | – | Cc1ccc(/C=N/NC(=O)c2cc(Cl)ccc2NC(=O)c2cccc(CN(CCO)CCO)c2)cc1C [Compound 406, 3-{[Bis-(2-hydroxy-ethyl)-amino]-methyl}-N-[4-chloro-2-(3,4-dimethyl-benzylidene-hydrazinocarbonyl)-phenyl]-benzamide] |
| < 1 µM | – | Cc1ccc(/C=N/NC(=O)c2cc(N3CCC(C)CC3)ccc2NC(=O)c2cccc(CSCCO)c2)cc1C [Compound 1069, N-[2-(3,4-Dimethyl-benzylidene-hydrazinocarbonyl)-4-(4-methyl-piperidin-1-yl)-phenyl]-3-(2-hydroxy-ethylsulfanylmethyl)-benzamide] |
| < 3 µM | – | O=C(Nc1sc2c(c1C(=O)N/N=C/c1ccc(Cl)c(C(F)(F)F)c1)CCCC2)c1cccc(CN2CCC(N3CCCCC3)CC2)c1 [Compound 619, 3-[1,4′]Bipiperidinyl-1′-ylmethyl-N-[3-(4-chloro-3-trifluoromethyl-benzylidene-hydrazinocarbonyl)-4,5,6,7-tetrahydro-benzo[b]thiophen-2-yl]-benzamide] |
| – | 73.7% | COc1ccc(/C=N/NC(=O)c2cscc2NC(=O)c2cccc(CN(CC(C)O)CC(C)O)c2)cc1 (stereo not shown) [Compound 979, 3-{[Bis-(2-hydroxy-propyl)-amino]-methyl}-N-[4-(4-methoxy-benzylidene-hydrazinocarbonyl)-thiophen-3-yl]-benzamide] |
| 1.21 µM | – | O=C(Nc1ccccc1C(=O)N/N=C/c1cccc(F)c1)c1ccccn1 [Compound 505, Pyridin-2-carboxylic acid [2-(3-fluoro-benzylidene-hydrazinocarbonyl)-phenyl]-amide] |
| – | 49.2% | Cc1ccc(/C=N/NC(=O)c2cc(Cl)ccc2NC(=O)c2cccc(CN(C)CCCN(C)Cc3cccc(C(=O)Nc4ccc(Cl)cc4C(=O)N/N=C/c4ccc(C)cc4)c3)c2)cc1 [Compound 702, N1-[4-Chloro-2-({2-[(E)-1-(4-methylphenyl)methylidene]-hydrazino}carbonyl}phenyl}-3-{[{3-[(3-{[4-chloro-2-({2-[(E)-1-(4-methylphenyl)methylidene]hydrazino}carbonyl}anilino}carbonyl}benzyl}(methyl)amino)propyl)(methyl)amino]methyl]benzamide] |
| < 3 µM | – | O=C(Nc1sc2c(c1C(=O)N/N=C/c1cccc(F)c1)CCCC2)c1cccc(CN2CCN(CCO)CC2)c1 [Compound 624, N-[3-(3-Fluoro-benzylidene-hydrazinocarbonyl)-4,5,6,7-tetrahydro-benzo[b]thiophen-2-yl]-3-[4-(2-hydroxy-ethyl)-piperazin-1-ylmethyl]-benzamide] |
| 3.57 µM | – | Cc1ccc(/C=N/NC(=O)c2cc(Br)ccc2NC(=O)c2cccnc2)cc1 [Compound 175, N-[4-Bromo-2-(4-methyl-benzylidene-hydrazinocarbonyl)-phenyl]-nicotinamide] |
